For test [1], the target named is PD-L1 His protein / PD-1 Fc protein (Homo sapiens (Human), UniProt Q9NZQ7). In words: HTRF Assay (PD-1/PD-L1 interaction). The format is binding. Conditions: PD-L1 His 6 nM, PD-1 Fc 6 nM.
For the next test, the target named is human PD-L1 (Homo sapiens (Human), UniProt Q9NZQ7). In words: T cell activation luciferase reporter cell culture system (T Cell Activation Assay). Format: cell-based. The note with it: luciferase reporter assay; PD-L1 aAPC/CHO-K1 cells with PD-1 effector Jurkat T cells. Background: Reporter assays use an easily measured gene product as a stand-in for the process of interest.

For test [2], the system named is MC38 tumors expressing human PD-L1. In words: In vivo anti-tumor efficacy in humanized PD-L1 and PD-1 expressing MC38 tumor mouse model. Conditions: intraperitoneal 0.3 mg/kg thrice weekly, study days 1 to 15. The protocol:
In one aspect, this assay measures the ability of a PD-L1 inhibitor to reduce the size of MC38 (a murine colon adenocarcinoma cell line) tumors in mice, as an indication of the PD-L1 inhibitor's ability to help treat, ameliorate, and/or prevent cancer in the subject.
In vivo anti-tumor efficacy of compounds was evaluated in mice expressing humanized PD-1 and PD-L1, in which the extracellular domains of murine PD-1 and PD-L1 were genetically replaced with the human extracellular domain counterparts (Huang et al., Scientific Reports, 2017; 7:42687). Humanized PD-1/PD-L1 (hPD-1/hPD-L1) mice were subcutaneously implanted with the colorectal cancer cell line MC38 expressing human PD-L1 and compound treatment initiated when tumor volumes reached approximately 100 mm^3. Compounds were administered via oral gavage once daily at: 30 mg/kg between study days 1 and 7; or 10 mg/kg for 28 days. The anti-PD-L1 monoclonal antibody atezolizumab was included as a positive reference control and administered via intraperitoneal injection at 0.3 mg/kg thrice weekly between study days 1 and 15. Tumor lengths and widths were measured by digital caliper and tumor volumes were calculated by the formula: […].

Experimental findings from patent publication US20240246964A1 (Arbutus Biopharma Corporation, priority 2021, published 2024) are described below.

Chain of PD-L1 His protein / PD-1 Fc protein (Q9NZQ7 19-238): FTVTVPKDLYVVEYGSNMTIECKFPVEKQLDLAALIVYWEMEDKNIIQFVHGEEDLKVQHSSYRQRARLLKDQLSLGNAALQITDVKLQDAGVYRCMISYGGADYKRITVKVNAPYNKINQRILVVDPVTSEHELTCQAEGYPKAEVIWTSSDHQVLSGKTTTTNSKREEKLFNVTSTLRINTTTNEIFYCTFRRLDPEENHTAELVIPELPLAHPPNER
Chain of human PD-L1 (Q9NZQ7 19-290): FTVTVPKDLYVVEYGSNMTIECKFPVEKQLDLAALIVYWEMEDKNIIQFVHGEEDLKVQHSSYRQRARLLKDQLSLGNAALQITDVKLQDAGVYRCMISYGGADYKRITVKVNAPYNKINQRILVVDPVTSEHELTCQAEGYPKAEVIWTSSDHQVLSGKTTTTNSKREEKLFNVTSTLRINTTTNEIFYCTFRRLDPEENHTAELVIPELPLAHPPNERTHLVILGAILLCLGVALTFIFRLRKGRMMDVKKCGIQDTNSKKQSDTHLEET

On to `COc1cc(-c2nccc(-c3cccc(NC(=O)c4ccc(CNCCO)cn4)c3C)c2Cl)ccc1CNC[C@@H]1CCC(=O)N1` [Example 735, (S)—N-(3-(3-Chloro-2-(3-methoxy-4-((((5-oxopyrrolidin-2-yl)methyl)amino)methyl)phenyl)pyridin-4-yl)-2-methylphenyl)-5-(((2-hydroxyethyl)amino)methyl)picolinamide], for which, in test [1], the IC50 was 0.03 nM. At human PD-L1, this compound showed an EC50 of 15.6 nM.

In test [1], `COc1cc(-c2nccc(-c3cccc(NC(=O)c4ccc(CNC[C@@H]5CCC(=O)N5)cn4)c3C)c2Cl)ccc1CNCCCF` [Example 749, (S)—N-(3-(3-Chloro-2-(4-(((3-fluoropropyl)amino)methyl)-3-methoxyphenyl)pyridin-4-yl)-2-methylphenyl)-5-((((5-oxopyrrolidin-2-yl)methyl)amino)methyl)picolinamide] had an IC50 of 0.33 nM. In addition, the EC50 on human PD-L1 came to 461 nM.

In test [1], `COc1cc(-c2nccc(-c3cccc(NC(=O)c4ccc(CNCCO)cn4)c3Cl)c2Cl)ccc1CNC[C@@H]1CCC(=O)N1` [Example 755, (S)—N-(2-Chloro-3-(3-chloro-2-(3-methoxy-4-((((5-oxopyrrolidin-2-yl)methyl)amino)methyl)phenyl)pyridin-4-yl)phenyl)-5-(((2-hydroxyethyl)amino)methyl)picolinamide] yielded an IC50 of 0.12 nM. The compound further registered an EC50 on human PD-L1 of 4.48 nM.

Compound `CNCc1ccc(C(=O)Nc2cccc(-c3ccnc(-c4ccc(CNC[C@@H]5CCC(=O)N5)c(OC)c4)c3Cl)c2C)nc1` [Example 756, (S)—N-(3-(3-chloro-2-(3-methoxy-4-((((5-oxopyrrolidin-2-yl)methyl)amino)methyl)phenyl)pyridin-4-yl)-2-methylphenyl)-5-((methylamino)methyl)picolinamide] had an IC50 in test [1] of 0.2 nM. The same compound displayed an EC50 at human PD-L1 of 63.8 nM.

Turning to `COc1cc(-c2nccc(-c3cccc(NC(=O)c4ccc(CNCCO)cn4)c3Cl)c2Cl)ccc1CN1CC2(C1)CN(C(C)=O)C2` [Example 757, N-(3-(2-(4-((6-Acetyl-2,6-diazaspiro[3.3]heptan-2-yl)methyl)-3-methoxyphenyl)-3-chloropyridin-4-yl)-2-chlorophenyl)-5-(((2-hydroxyethyl)amino)methyl)picolinamide], the IC50 in test [1] was 0.47 nM. Further, the EC50 at human PD-L1 came to 86.5 nM.

With `COc1nc(-c2cccc(-c3nccc(-c4ccc(CN5CCC(O)CC5)c(OC)n4)c3Cl)c2Cl)ccc1CN1CCC(O)CC1` [Example 759, 1-((3′-Chloro-2′-(2-chloro-3-(5-((4-hydroxypiperidin-1-yl)methyl)-6-methoxypyridin-2-yl)phenyl)-6-methoxy-[2,4′-bipyridin]-5-yl)methyl)piperidin-4-ol], the IC50 in test [1] worked out at 0.63 nM. The EC50 on human PD-L1 amounted to 16.9 nM.

`COc1nc(-c2cccc(-c3nccc(-c4ccc(CN5CC6(CCN(C(C)=O)C6)C5)c(OC)n4)c3Cl)c2Cl)ccc1CN1CC2(CCN(C(C)=O)C2)C1` [Example 760, 1-(2-((6-(3-(5-((6-Acetyl-2,6-diazaspiro[3.4]octan-2-yl)methyl)-3′-chloro-6-methoxy-[2,4′-bipyridin]-2′-yl)-2-chlorophenyl)-2-methoxypyridin-3-yl)methyl)-2,6-diazaspiro[3.4]octan-6-yl)ethan-1-one]: the IC50 in test [1] is 0.32 nM. Further, the EC50 on human PD-L1 was 19.2 nM.

In the case of `COc1nc(-c2cccc(-c3nccc(-c4ccc(CN5CCC(O)CC5)c(OC)n4)c3Cl)c2Cl)ccc1CNC1CCN(C(C)=O)CC1` [Example 761, 1-(4-(((6-(2-Chloro-3-(3′-chloro-5-((4-hydroxypiperidin-1-yl)methyl)-6-methoxy-[2,4′-bipyridin]-2′-yl)phenyl)-2-methoxypyridin-3-yl)methyl)amino)piperidin-1-yl)ethan-1-one], half-maximal inhibition in test [1] (IC50) required 0.87 nM. Further, the EC50 at human PD-L1 is 16.9 nM.

`COc1cc(-c2nccc(-c3cccc(NC(=O)c4ccc(CNCCO)cn4)c3C)c2Cl)cc(F)c1CNCCO` [Example 762, N-(3-(3-chloro-2-(3-fluoro-4-(((2-hydroxyethyl)amino)methyl)-5-methoxyphenyl)pyridin-4-yl)-2-methylphenyl)-5-(((2-hydroxyethyl)amino)methyl)picolinamide]: in test [1], inhibition was half-maximal at 0.75 nM (IC50). The same compound returned an EC50 at human PD-L1 of 49.9 nM.

Compound `COc1nc(-c2ccnc(-c3cccc(NC(=O)c4ccc(CNCCO)cn4)c3C)c2Cl)ccc1CNC1CCOCC1` [Example 766, N-(3-(3′-Chloro-6-methoxy-5-(((tetrahydro-2H-pyran-4-yl)amino)methyl)-[2,4′-bipyridin]-2′-yl)-2-methylphenyl)-5-(((2-hydroxyethyl)amino)methyl)picolinamide] registered an IC50 in test [1] of 0.32 nM. On human PD-L1, this compound came in with an EC50 of 152 nM.

In test [1], `COc1cc(-c2nccc(-c3cccc(NC(=O)c4ccc(CNCCO)cn4)c3Cl)c2Cl)ccc1CNC1CCOCC1` [Example 768, N-(2-Chloro-3-(3-chloro-2-(3-methoxy-4-(((tetrahydro-2H-pyran-4-yl)amino)methyl)phenyl)pyridin-4-yl)phenyl)-5-(((2-hydroxyethyl)amino)methyl)picolinamide] returned an IC50 of 0.1 nM. This compound displayed an EC50 at human PD-L1 of 16.7 nM.

On to `COc1nc(-c2ccnc(-c3cccc(NC(=O)c4ccc(CNCCO)cn4)c3C)c2Cl)ccc1CNC1CCN(C(C)=O)CC1` [Example 769, N-(3-(5-(((1-Acetylpiperidin-4-yl)amino)methyl)-3′-chloro-6-methoxy-[2,4′-bipyridin]-2′-yl)-2-methylphenyl)-5-(((2-hydroxyethyl)amino)methyl)picolinamide], for which, in test [1], the IC50 came to 0.24 nM. On human PD-L1, the EC50 amounted to 60.6 nM.

With `Cc1c(NC(=O)c2ccc(CNCCO)cn2)cccc1-c1ccnc(-c2ccc(CNC[C@@H]3CCC(=O)N3)c(OC(F)F)c2)c1Cl` [Example 770, (S)—N-(3-(3-Chloro-2-(3-(difluoromethoxy)-4-((((5-oxopyrrolidin-2-yl)methyl)amino)methyl)phenyl)pyridin-4-yl)-2-methylphenyl)-5-(((2-hydroxyethyl)amino)methyl)picolinamide], half-maximal inhibition in test [1] (IC50) required 0.76 nM. Besides, a half-maximal response at human PD-L1 (EC50) required 24.3 nM.

As to `COc1nc(-c2ccnc(-c3cccc(NC(=O)c4ccc(CNCCO)cn4)c3C)c2Cl)ccc1CNC[C@@H]1CCC(=O)N1` [Example 771, (S)—N-(3-(3′-chloro-6-methoxy-5-((((5-oxopyrrolidin-2-yl)methyl)amino)methyl)-[2,4′-bipyridin]-2′-yl)-2-methylphenyl)-5-(((2-hydroxyethyl)amino)methyl)picolinamide], the IC50 in test [1] was determined as 0.03 nM. The compound also yielded an EC50 on human PD-L1 of 28.7 nM.

On to `COc1nc(-c2cccc(-c3nccc(-c4ccc(CN5CC[C@@H](O)C5)c(OC)n4)c3Cl)c2Cl)ccc1CN1CC[C@@H](O)C1` [Example 772, (R)-1-((3′-Chloro-2′-(2-chloro-3-(5-(((R)-3-hydroxypyrrolidin-1-yl)methyl)-6-methoxypyridin-2-yl)phenyl)-6-methoxy-[2,4′-bipyridin]-5-yl)methyl)pyrrolidin-3-ol], for which the IC50 in test [1] worked out at 0.85 nM. The same compound had an EC50 at human PD-L1 of 11.6 nM.

For `COc1nc(-c2cccc(-c3nccc(-c4ccc(CN5CC[C@H](O)C5)c(OC)n4)c3Cl)c2Cl)ccc1CN1CC[C@H](O)C1` [Example 773, (S)-1-((3′-Chloro-2′-(2-chloro-3-(5-(((S)-3-hydroxypyrrolidin-1-yl)methyl)-6-methoxypyridin-2-yl)phenyl)-6-methoxy-[2,4′-bipyridin]-5-yl)methyl)pyrrolidin-3-ol], in test [1], the IC50 stood at 1.03 nM. The compound further displayed an EC50 on human PD-L1 of 10.6 nM.

For the compound `COc1nc(-c2cccc(-c3nccc(-c4ccc(CNC5CCN(C(C)=O)CC5)c(OC)n4)c3Cl)c2Cl)ccc1CN1CCC(O)CC1` [Example 774, 1-(4-(((3′-Chloro-2′-(2-chloro-3-(5-((4-hydroxypiperidin-1-yl)methyl)-6-methoxypyridin-2-yl)phenyl)-6-methoxy-[2,4′-bipyridin]-5-yl)methyl)amino)piperidin-1-yl)ethan-1-one], the IC50 in test [1] is 1.46 nM. On human PD-L1, this compound gave an EC50 of 13 nM.

Regarding atezolizumab, the “Tumor Volume (group mean)” value in test [2] (study day 2) is listed as 122 mm^3; in test [2] (study day 5), 162 mm^3; in test [2] (study day 9) it was 156 mm^3; in test [2] (study day 12) it was 192 mm^3; in test [2] (study day 16) it was 242 mm^3; in test [2] (study day 19), 243 mm^3. The “Tumor Volume (group mean)” value in test [2] (study day 23) worked out at 341 mm^3; in test [2] (study day 26) it was 429 mm^3; in test [2] (study day 28), 472 mm^3; in test [2] (study day −1) it was 105 mm^3.

As usually defined, the IC50 is the point on the concentration scale where inhibition reaches its midpoint. In general, EC50 refers to the midpoint of the concentration-response curve.
